# The source made the active and inactive calls. The rule behind the calls is not given here.
# How the values were obtained:
# [1] = target: T1, von Hippel-Lindau disease tumor suppressor/Bromodomain-containing protein 4 (Homo sapiens, UniProt O60885+P40337); experiment: PROTAC activity at BRD4/VHL E3 ligase in 12 hrs BODIPY-TZ treated human MDA-MB-231 cells assessed as activation of caspase-3 expression incubated for 48 hrs by Western blot analysis; format: cell-based
# [2] = target: T1, von Hippel-Lindau disease tumor suppressor/Bromodomain-containing protein 4; experiment: PROTAC activity at BRD4/VHL E3 ligase in human T47D cells assessed as induction of degradation of intracellular BRD4 at 200 nM incubated for 48 hrs by immunofluorescence staining assay; format: cell-based
# MCF7 [3] = experiment: Antitumor activity against IR808-TZ treated human MCF7 cells xenografted in BALB/c nude mouse model assessed as inhibition of tumor cell proliferation by measuring reduction in Ki67 staining at 20 mg/kg administered for 16 days by immunohistochemical analysis; format: functional, organism-based; conditions: time 16.0 day
# MCF7 [4] = experiment: Cytotoxicity against human MCF7 cells assessed as inhbition of cell growth measured after 48 hrs by CCK-8 method; format: functional, cell-based; conditions: MCF7, 48 h
# [5] = target: T1, von Hippel-Lindau disease tumor suppressor/Bromodomain-containing protein 4; experiment: PROTAC activity at BRD4/VHL E3 ligase in human MCF7 cells assessed as induction of degradation of intracellular BRD4 at 200 nM incubated for 48 hrs by immunofluorescence staining assay; format: cell-based
# MCF7 [6] = experiment: Cytotoxicity against 12 hrs BODIPY-TZ treated human MCF7 cells assessed as inhbition of cell growth measured after 48 hrs by CCK-8 method; format: functional, cell-based
# [7] = Drug uptake in 12 hrs BODIPY-TZ treated human […] cells assessed as strong fluorescence at 600 nM measured after 30 mins by fluorescence microscopy analysis; format: ADME, cell-based; conditions: t47d, 0.5 h, 0.6 µM
# MCF7 [8] = experiment: Antitumor activity against human MCF7 cells xenografted in BALB/c nude mouse assessed as apoptosis at 20 mg/kg measured after 48 hrs by Western blot analysis; format: functional, organism-based
# [9] = target: T1, von Hippel-Lindau disease tumor suppressor/Bromodomain-containing protein 4; experiment: PROTAC activity at BRD4/VHL E3 ligase in 12 hrs BODIPY-TZ treated human T47D cells assessed as degradation of BRD4 expression incubated for 48 hrs by Western blot analysis; format: cell-based
# T1 sequence (P40337 whole entry, looked up, other chains not shown): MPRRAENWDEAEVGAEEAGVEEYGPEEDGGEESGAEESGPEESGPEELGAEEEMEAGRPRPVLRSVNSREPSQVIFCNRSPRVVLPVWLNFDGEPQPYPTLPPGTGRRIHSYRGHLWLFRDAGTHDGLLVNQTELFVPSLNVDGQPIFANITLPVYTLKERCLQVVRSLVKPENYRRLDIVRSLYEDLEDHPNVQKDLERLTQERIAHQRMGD
smiles,measurement,setting,value
CC1=CC(C)=[N+]2C1=C(c1cccc(-c3nnc(C)nn3)c1)c1c(C)cc(C)n1[B-]2(F)F,Activity,[1],Active
same,Activity,[2],inactive
same,Activity,MCF7 [3],Active
same,IC50,MCF7 [4],1320 nM
same,Activity,[5],inactive
same,IC50,MCF7 [6],264 nM
same,Drug uptake,[7],Active
same,Activity,MCF7 [8],inactive
same,Activity,[9],Active
